Source: ChEMBL document CHEMBL1201862, “PubChem BioAssay data set” (2004)
Activity calls are given as the source filed them.

Key:
[1] = inhibitors of SNCA 5'UTR-driven reporter translation, confirmation, H4 neuroglioma cells, luminescence (AID 1988); assay type: functional, cell-based
[2] = Luminescence-based counterscreen assay for KLF5 inhibitors: dose response cell-based high throughput screening assay to identify cytotoxic compounds using the IEC-6 intestinal epithelial cell line. [Related pubchem assays: 1700 (Primary screen.), 1834 (Confirmation screen.), 1858 (Summary AID.), 1905 (Counterscreen.)]; assay type: functional
[3] = target: Paired box protein Pax-8 (Homo sapiens, UniProt Q06710); assay: inhibitors of PAX8-driven TPO luciferase reporter, dose response, RMG-I cells, cherry-pick (AID 687027); assay type: functional, cell-based;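 also: luciferase reporter driven by Pax8 target thyroperoxidase promoter measured by SteadyGlo luminescence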
Sequence of Paired box protein Pax-8 (Q06710 whole entry): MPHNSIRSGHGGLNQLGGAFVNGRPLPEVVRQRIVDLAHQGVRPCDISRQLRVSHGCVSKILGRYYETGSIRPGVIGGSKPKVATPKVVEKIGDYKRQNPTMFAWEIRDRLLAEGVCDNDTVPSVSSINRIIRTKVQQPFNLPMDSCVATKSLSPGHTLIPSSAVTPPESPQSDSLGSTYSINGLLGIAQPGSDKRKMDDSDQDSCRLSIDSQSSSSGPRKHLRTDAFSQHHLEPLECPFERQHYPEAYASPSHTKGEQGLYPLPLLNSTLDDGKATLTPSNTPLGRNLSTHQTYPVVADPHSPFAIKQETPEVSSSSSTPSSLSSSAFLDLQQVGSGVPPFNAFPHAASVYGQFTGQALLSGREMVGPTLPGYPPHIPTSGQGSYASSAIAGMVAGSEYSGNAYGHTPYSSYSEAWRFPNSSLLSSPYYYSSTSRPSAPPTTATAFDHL

[4] = non-specific cell cytotoxicity, dose response, cytotoxicity control for PAX8 inhibitor project, plate reader, dry powder samples (AID 743021); assay type: functional, cell-based
[5] = inhibitors of firefly luciferase expression or activity, dose response, H4 neuroglioma cells, luminescence (AID 1990); assay type: functional, cell-based
[6] = Luminescence Cell-Based Dose Response HTS to Identify Inhibitors of 5'UTR Stem-Loop Driven Prion Protein mRNA Translation in H4 Neuroglioblastoma Cells. [Related pubchem assays: 1827 (Project Summary), 1813 (Primary HTS)]; assay type: functional
[7] = target: Inward rectifier potassium channel 2 (Mus musculus, UniProt P35561); assay: Manual electrophysiological patch clamp assay for SAR compounds that inhibit/block inward-rectifying potassium ion channel Kir2.1. [Related pubchem assays: 1843 (Summary assay for Kir2.1 inhibitor assays.), 1672 (Primary HTS of 305616 compounds where 2592 were identified as active.)]; assay type: functional
Sequence of Inward rectifier potassium channel 2 (P35561 whole entry): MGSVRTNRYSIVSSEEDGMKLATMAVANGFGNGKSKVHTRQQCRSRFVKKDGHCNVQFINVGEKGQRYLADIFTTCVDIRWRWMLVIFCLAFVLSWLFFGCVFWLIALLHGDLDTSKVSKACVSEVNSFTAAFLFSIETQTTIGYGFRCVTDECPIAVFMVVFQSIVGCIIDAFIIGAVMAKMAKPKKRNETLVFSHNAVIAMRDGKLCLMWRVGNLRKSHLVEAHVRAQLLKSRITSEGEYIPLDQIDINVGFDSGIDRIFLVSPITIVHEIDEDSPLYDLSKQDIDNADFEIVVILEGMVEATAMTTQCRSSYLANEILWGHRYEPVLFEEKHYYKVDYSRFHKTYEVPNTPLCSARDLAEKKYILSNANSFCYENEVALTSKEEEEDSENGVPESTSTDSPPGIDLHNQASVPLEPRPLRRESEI

[8] = target: Peroxisome proliferator-activated receptor gamma/Nuclear receptor corepressor 2 (Homo sapiens, UniProt P37231+Q9Y618); assay type: functional
[9] = target: Photoreceptor-specific nuclear receptor (Homo sapiens, UniProt Q9Y5X4); assay type: functional;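 also: potency for compounds that break the NR2E3 corepressor complex and count as activators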
Sequence of Photoreceptor-specific nuclear receptor (Q9Y5X4 whole entry): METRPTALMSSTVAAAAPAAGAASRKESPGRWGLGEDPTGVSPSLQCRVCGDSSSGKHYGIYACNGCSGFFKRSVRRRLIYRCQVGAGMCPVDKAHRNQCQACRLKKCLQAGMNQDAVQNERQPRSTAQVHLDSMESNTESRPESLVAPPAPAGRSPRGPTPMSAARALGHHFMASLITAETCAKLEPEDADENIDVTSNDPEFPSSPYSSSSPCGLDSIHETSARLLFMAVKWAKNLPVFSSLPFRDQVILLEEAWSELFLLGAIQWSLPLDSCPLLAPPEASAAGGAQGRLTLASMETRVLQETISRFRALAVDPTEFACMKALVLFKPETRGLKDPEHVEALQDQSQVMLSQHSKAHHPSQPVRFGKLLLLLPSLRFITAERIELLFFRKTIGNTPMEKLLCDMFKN

[10] = target: NS3 (Hepatitis C virus, UniProt A3EZJ3); assay: PubChem AID 2173; parameters: species or system Hepacivirus hominis
Sequence of NS3 (A3EZJ3 whole entry): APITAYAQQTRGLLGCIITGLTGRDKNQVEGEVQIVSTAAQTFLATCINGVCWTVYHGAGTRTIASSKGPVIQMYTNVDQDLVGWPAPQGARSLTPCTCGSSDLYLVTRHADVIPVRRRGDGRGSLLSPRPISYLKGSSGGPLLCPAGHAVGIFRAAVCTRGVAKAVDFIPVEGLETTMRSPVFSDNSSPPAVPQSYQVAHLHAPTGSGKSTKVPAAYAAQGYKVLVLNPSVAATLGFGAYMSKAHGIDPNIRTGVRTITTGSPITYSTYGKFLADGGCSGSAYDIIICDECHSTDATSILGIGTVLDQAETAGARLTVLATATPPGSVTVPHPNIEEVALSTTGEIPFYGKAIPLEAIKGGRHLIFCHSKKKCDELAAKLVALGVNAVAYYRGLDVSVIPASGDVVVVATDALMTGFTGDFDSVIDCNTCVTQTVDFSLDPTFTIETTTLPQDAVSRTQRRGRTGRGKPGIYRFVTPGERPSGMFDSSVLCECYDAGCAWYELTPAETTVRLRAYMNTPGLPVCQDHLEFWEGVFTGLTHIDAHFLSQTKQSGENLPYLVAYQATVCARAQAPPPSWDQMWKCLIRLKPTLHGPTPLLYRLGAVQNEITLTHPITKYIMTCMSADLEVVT

[11] = test system: HeLa; assay: Cytotoxicity counterscreen assay for transcriptional activators of heat shock protein 70 (Hsp70). [Related pubchem assays: 1203, 1252 ]; assay type: functional; details: Homo sapiens;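 also: cells exposed to compound for 16 hours before readout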
[12] = target: Large T antigen (Simian virus 40, UniProt P03070); assay type: functional, Betapolyomavirus macacae;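 also: Confirmatory-stage PubChem screen for compounds that inhibit SV40 T antigen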
Sequence of Large T antigen (P03070 whole entry): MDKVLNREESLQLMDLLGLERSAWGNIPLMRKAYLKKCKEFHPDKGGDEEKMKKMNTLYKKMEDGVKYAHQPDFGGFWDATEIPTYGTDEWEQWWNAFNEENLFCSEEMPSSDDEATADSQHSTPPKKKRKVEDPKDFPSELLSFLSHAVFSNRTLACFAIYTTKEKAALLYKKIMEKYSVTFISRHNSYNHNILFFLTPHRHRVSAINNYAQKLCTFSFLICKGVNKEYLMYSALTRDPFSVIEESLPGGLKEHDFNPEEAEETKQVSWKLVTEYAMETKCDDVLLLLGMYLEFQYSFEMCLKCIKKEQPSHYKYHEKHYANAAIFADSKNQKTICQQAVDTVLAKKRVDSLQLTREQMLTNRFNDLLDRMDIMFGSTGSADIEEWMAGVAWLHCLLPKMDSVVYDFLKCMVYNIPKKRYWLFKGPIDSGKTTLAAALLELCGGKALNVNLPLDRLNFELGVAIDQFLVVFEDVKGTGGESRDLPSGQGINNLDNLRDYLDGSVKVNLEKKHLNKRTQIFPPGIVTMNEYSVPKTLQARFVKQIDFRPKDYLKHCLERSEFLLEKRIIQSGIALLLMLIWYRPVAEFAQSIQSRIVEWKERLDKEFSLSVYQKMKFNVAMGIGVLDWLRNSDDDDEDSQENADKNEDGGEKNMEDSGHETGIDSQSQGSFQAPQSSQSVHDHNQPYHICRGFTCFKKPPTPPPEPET

[13] = target: Induced myeloid leukemia cell differentiation protein Mcl-1 (Homo sapiens, UniProt Q07820); assay type: functional
Sequence of Induced myeloid leukemia cell differentiation protein Mcl-1 (Q07820 whole entry): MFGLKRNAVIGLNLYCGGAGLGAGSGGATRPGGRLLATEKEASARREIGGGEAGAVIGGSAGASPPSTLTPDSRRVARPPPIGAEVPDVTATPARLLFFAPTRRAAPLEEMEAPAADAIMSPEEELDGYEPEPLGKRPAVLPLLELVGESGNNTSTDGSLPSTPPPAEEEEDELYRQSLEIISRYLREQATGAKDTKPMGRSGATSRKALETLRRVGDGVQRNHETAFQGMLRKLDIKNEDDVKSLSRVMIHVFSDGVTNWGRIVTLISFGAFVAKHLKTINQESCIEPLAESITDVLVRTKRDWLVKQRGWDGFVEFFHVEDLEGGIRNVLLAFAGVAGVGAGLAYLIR

[14] = target: Estrogen receptor beta (Homo sapiens, UniProt Q92731); assay: ERβ–SRC-3 coactivator interaction inhibitors, confirmation, orthogonal assay, biochemical, ELISA, streptavidin-HRP readout (AID 1060)
[15] = M. tuberculosis H37Rv growth inhibitors, H37Rv strain (AID 1626); assay type: functional
[16] = Luminescence Cell-Based Dose Confirmation HTS to Identify Activators of 5'UTR Stem-Loop Driven Alpha-Synuclein mRNA Translation in H4 Neuroglioblastoma Cells. [Related pubchem assays: 1829 (Project Summary), 1814 (Primary HTS)]; assay type: functional
[17] = target: T1, Heat shock factor protein 1 (Mus musculus, UniProt P38532); assay: inhibition of MG132-induced HSE-luciferase signal, confirmation, cell-based, NIH3T3, luminescence, dose retest (AID 2382); assay type: functional;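 also: NIH3T3 fibroblasts with HSF1-driven luciferase reporter stressed by proteasome inhibitor MG132; luminescence from HSF1-driven luciferase expression after 8 hours of MG132 stress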
T1 sequence (P38532 whole entry): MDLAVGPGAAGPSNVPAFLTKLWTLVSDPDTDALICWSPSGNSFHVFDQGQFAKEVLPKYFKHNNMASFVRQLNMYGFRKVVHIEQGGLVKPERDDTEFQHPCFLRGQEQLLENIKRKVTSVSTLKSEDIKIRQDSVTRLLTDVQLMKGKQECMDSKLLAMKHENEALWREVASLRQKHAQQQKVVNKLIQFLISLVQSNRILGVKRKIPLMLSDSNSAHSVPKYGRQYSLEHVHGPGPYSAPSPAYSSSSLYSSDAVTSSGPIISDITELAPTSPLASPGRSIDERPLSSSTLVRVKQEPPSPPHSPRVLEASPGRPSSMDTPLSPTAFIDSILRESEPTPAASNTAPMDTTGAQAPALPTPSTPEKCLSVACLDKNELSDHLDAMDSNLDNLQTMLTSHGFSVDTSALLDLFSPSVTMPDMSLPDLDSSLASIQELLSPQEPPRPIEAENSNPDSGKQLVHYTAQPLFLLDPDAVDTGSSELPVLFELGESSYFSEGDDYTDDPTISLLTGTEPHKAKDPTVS

[18] = C. albicans growth with fluconazole, confirmation, fluorescence, retest (AID 2467); assay type: functional, cell-based
[19] = Luminescence Cell-Based Dose Response HTS to Identify Activators of Luciferase Translation or Activity in H4 […] Cells. [Related pubchem assays: 1829 (Project Summary), 1814 (Primary HTS)]; assay type: functional
[20] = NIH-3T3 fibroblast cytotoxicity, dose response, cytotoxicity control, cell-based, fluorescence, Alamar Blue, secondary assay (AID 2327); assay type: functional;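 also: NIH-3T3 mouse fibroblasts cultured with fluconazole at 8 µg/mL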
[21] = target: T2, Insulin-degrading enzyme (Homo sapiens, UniProt P14735); assay: Dose Response: Fluorescence polarization-based cell-based high throughput dose response assay for inhibitors of insulin-degrading enzyme (IDE). [Related pubchem assays: 434962 (Primary screen (IDE inhibitors in singlicate)), 449730 (Counterscreen (Cytotoxicity in triplicate)), 435028 (Confirmation (IDE inhibitors in triplicate)), 434984 (Summary …; assay type: functional
T2 sequence (P14735 whole entry): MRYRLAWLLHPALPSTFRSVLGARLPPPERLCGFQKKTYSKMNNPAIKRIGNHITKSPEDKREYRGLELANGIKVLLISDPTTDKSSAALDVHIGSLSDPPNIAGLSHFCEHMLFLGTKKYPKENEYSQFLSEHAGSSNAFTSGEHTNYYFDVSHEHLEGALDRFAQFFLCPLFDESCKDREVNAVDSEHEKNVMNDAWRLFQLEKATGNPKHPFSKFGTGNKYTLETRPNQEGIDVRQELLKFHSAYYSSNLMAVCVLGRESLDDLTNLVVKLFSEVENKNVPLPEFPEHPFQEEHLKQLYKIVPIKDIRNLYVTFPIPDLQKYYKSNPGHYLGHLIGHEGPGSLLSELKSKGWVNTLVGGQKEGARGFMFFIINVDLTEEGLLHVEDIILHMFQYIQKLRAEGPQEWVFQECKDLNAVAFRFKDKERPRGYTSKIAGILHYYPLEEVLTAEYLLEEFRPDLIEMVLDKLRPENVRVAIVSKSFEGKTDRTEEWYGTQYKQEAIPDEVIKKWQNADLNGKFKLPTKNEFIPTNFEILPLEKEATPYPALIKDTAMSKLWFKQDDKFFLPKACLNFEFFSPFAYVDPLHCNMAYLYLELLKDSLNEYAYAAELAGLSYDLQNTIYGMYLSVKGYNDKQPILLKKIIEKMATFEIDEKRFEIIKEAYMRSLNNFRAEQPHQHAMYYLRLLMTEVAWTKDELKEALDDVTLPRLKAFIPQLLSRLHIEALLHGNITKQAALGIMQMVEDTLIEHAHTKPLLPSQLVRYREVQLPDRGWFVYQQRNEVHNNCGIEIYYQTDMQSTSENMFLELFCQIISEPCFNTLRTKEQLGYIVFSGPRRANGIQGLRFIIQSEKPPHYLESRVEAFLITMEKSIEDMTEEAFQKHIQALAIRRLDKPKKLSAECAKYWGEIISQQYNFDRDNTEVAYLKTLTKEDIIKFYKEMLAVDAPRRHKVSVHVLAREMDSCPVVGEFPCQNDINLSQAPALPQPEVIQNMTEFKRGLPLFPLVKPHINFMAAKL

[22] = Counterscreen for IDE inhibitors: Luminescence-based cell-based high throughput dose response assay to identify compounds that are cytotoxic to HEK cells. [Related pubchem assays: 434962 (Primary screen (IDE inhibitors in singlicate)), 449730 (Counterscreen (Cytotoxicity in triplicate)), 435028 (Confirmation (IDE inhibitors in triplicate)) …; assay type: functional; details: HEK293
[23] = target: T3, Calpain-2 catalytic subunit (Sus scrofa, UniProt P43367); assay: pig calpain II inhibitor potency, dose response, biochemical, fluorogenic peptide substrate (AID 1420); assay type: functional
T3 sequence (P43367 whole entry): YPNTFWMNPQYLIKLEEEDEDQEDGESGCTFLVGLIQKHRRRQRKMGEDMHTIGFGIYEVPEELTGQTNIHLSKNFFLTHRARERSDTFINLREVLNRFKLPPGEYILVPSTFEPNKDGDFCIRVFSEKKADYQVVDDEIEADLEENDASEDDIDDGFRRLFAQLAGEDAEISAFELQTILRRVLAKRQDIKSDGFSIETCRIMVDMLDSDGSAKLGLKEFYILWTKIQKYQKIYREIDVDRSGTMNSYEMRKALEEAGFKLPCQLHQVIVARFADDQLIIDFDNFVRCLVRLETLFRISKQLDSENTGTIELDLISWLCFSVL

[24] = HIV-1 Env-mediated cell fusion inhibitors, dose response, CCR5-tropic Env (AID 2279); assay type: functional
[25] = target: T4, Aminopeptidase N (Plasmodium falciparum FcB1/Columbia, UniProt O96935); assay: P. falciparum M1AAP inhibitors, biochemical, fluorogenic H-Leu-NHMec substrate, 1536-well (AID 1445); parameters: species or system Plasmodium falciparum 3D7, 3D7
T4 sequence (O96935 whole entry): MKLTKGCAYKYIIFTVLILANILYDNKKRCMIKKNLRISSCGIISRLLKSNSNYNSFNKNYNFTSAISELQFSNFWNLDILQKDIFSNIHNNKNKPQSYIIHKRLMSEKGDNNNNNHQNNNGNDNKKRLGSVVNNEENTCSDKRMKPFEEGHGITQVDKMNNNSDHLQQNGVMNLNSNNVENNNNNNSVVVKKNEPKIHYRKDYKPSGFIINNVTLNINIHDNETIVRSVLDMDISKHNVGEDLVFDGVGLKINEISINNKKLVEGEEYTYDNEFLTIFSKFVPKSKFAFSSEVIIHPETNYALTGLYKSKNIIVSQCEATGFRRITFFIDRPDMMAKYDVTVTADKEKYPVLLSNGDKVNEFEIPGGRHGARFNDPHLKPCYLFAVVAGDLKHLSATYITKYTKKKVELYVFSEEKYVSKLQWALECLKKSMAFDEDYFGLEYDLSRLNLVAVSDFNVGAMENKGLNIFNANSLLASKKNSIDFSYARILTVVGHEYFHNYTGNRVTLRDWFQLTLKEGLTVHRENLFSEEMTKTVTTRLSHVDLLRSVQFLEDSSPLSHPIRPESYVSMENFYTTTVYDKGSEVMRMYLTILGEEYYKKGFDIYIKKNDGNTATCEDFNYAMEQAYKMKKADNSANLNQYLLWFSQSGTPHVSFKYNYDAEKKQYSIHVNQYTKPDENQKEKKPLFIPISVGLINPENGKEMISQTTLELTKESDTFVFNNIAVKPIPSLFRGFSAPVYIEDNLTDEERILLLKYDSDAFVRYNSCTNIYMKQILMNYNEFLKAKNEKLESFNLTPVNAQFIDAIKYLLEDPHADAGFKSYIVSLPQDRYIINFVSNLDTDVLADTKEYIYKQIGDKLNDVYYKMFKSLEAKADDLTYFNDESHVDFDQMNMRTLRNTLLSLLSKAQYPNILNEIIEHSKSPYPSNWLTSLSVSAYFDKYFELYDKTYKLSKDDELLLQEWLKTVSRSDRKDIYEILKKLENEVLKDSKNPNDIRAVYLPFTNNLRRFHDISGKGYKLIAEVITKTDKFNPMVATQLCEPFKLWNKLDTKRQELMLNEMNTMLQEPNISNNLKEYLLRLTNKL

[26] = target: Peroxisome proliferator-activated receptor gamma/Nuclear receptor coactivator 2 (Homo sapiens, UniProt P37231); assay type: functional;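 also: agonist potency for raising coactivator recruitment to the receptor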
[27] = target: Peroxisome proliferator-activated receptor gamma/Nuclear receptor coactivator 3 (Homo sapiens, UniProt P37231); assay type: functional;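 also: agonist potency for raising coactivator recruitment to the receptor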
Sequence of Peroxisome proliferator-activated receptor gamma/Nuclear receptor coactivator 3 (P37231 whole entry): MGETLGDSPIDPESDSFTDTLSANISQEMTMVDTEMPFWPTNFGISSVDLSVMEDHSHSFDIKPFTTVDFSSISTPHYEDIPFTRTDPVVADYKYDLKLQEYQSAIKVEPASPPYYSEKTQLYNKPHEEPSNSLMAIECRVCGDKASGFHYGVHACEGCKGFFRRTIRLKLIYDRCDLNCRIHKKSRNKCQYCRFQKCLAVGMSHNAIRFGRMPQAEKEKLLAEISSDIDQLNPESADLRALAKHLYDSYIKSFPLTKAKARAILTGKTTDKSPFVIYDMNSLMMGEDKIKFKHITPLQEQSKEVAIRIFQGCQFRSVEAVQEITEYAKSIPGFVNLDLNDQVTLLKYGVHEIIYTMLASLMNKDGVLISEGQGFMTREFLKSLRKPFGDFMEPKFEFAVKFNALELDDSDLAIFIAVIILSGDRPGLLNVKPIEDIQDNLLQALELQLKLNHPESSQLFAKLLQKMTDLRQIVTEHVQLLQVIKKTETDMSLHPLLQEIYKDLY
Sequence of Peroxisome proliferator-activated receptor gamma/Nuclear receptor coactivator 3 (Q9Y6Q9 whole entry, further chain): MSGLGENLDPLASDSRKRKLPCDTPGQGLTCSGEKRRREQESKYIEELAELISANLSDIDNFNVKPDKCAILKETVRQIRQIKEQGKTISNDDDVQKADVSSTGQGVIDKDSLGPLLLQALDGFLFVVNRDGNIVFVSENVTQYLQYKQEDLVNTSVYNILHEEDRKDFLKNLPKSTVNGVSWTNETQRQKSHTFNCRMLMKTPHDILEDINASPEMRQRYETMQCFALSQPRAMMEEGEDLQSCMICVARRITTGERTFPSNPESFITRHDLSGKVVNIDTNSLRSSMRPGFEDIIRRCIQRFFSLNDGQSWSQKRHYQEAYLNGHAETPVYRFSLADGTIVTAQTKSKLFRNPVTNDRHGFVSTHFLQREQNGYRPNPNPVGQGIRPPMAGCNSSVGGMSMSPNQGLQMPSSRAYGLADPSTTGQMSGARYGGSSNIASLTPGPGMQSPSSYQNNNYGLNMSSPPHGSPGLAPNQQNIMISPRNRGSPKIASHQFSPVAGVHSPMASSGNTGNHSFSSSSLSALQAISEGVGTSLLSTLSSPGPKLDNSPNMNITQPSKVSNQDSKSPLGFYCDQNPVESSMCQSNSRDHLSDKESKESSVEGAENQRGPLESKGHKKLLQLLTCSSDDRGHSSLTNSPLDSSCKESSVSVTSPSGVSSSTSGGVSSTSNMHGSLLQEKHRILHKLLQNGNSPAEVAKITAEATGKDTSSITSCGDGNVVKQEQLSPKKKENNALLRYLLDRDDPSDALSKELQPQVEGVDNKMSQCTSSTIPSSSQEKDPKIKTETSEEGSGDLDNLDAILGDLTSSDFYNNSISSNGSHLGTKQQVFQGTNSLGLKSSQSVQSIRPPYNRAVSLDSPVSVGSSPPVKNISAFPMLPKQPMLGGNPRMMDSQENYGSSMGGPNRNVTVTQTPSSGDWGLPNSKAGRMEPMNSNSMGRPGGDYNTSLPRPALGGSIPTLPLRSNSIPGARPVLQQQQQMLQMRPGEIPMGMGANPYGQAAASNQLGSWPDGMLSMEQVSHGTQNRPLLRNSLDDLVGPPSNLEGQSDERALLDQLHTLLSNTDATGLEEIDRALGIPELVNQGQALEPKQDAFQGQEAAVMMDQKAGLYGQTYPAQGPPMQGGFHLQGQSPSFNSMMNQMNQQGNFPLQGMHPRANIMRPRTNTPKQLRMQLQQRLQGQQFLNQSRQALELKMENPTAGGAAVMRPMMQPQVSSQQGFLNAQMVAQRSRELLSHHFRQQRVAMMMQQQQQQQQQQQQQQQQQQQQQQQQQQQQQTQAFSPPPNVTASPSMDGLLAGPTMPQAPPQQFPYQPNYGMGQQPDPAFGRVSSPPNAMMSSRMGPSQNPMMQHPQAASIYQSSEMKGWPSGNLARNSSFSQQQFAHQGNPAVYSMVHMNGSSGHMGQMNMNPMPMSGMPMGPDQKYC

[28] = target: Peroxisome proliferator-activated receptor gamma/Nuclear receptor coactivator 1 (Homo sapiens, UniProt P37231); assay type: functional;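 also: agonist potency as compounds enhance coactivator SRC-1 recruitment to PPARgamma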

C/C(=N\NC(=O)c1[nH]nc2c1CCC2)c1cccs1
EC50 [1]: 2.95 µM (active) | IC50 [2]: 10.1 µM (not active) | AC50 [3]: 5.19 µM (active) | AC50 [4]: 8.65 µM (active) | EC50 [5]: 4.85 µM (active) | EC50 [6]: 4.49 µM (active)

COc1ccc(CNCc2ccccc2C)cc1
IC50 [7]: 9.08 µM (active)

Cc1ccc(C(=O)C2=C(O)C(=O)N(Cc3cccnc3)C2c2cccc(Oc3ccccc3)c2)o1 (centres undefined)
IC50 [8]: 2.46 µM (active) | IC50 [9]: 5.73 µM (active) | IC50 [10]: 6.11 µM (active)

CN(C)/C=C1/NC(=S)NC1=O
CC50 [11]: > 99 µM (not active)

Cc1cc(-c2nc3c4c5c(sc4nc(O)n3n2)CCC5)c(C)o1
IC50 [12]: 24.8 µM (active) | IC50 [13]: 3.05 µM (active) | IC50 [14]: 18.6 µM (not active)

COc1cc(/C=N/N=C(/Nc2ccc(C)cc2)c2nc3ccccc3s2)ccc1O
IC50 [15]: > 100 µM (active) | EC50 [16]: 17.6 µM (active) | EC50 [17]: < 0.16 µM (active) | EC50 [18]: > 38 µM (not active) | EC50 [19]: 0.154 µM (active) | EC50 [20]: > 150 µM (inactive)

CC(Oc1ccc2c3c(c(=O)oc2c1)CCCC3)C(=O)NCc1ccncc1 (centres undefined)
IC50 [21]: > 55.9 µM (not active) | IC50 [22]: 36.4 µM (not active)

COc1cc(/C=C2\SC(=S)NC2=O)ccc1OS(=O)(=O)c1ccccc1
IC50 [23]: 11.1 µM (not active) | IC50 [24]: 16.5 µM (active) | IC50 [13]: 2.79 µM (active) | IC50 [25]: 38.6 µM (active)

O=C(Nc1nc(-c2ccccc2)nc2ccccc12)c1ccc(F)cc1
EC50 [26]: 13.5 µM (not active) | EC50 [27]: 23 µM (not active) | EC50 [28]: 17.2 µM (not active)
